Test results as given in patent US20250136606A1, “MODULATORS OF TRPML, THEIR COMPOSITIONS AND METHODS OF USE” (Caraway Therapeutics, Inc., priority 2021, published 2025).
Where two headings read alike, the source gives them in different places.

Experiments:
Format in all cases: cell-based
TRPML1 = TRPML1 (Homo sapiens, UniProt Q9GZU1); test: Fluorescent TRPML1 assay (Fluo4-AM calcium fluorescence in doxycycline-induced HEK-293 Trex cells)
Procedure, shortened: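 First, expression of surface-targeted mutant human TRPML1 is induced in HEK-293 Trex cells with 0.5 ug/mL doxycycline the day before. Next, cells take up 1 micromolar Fluo4-AM in Ringer's with 0.1% Pluronic. Finally, they are added to compounds (6 nanomolar–20 micromolar final) in 10 mM calcium Ringer's and fluorescence is read.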

TRPML3 = molecular target: T1, TRPML3 (Homo sapiens, UniProt Q8TDD5); test: Fluorescent TRPML3 assay (performed as for TRPML1, substituting the TRPML3 subtype)
T1 construct: expressed in transfected cells
T1 sequence (Q8TDD5 1-553): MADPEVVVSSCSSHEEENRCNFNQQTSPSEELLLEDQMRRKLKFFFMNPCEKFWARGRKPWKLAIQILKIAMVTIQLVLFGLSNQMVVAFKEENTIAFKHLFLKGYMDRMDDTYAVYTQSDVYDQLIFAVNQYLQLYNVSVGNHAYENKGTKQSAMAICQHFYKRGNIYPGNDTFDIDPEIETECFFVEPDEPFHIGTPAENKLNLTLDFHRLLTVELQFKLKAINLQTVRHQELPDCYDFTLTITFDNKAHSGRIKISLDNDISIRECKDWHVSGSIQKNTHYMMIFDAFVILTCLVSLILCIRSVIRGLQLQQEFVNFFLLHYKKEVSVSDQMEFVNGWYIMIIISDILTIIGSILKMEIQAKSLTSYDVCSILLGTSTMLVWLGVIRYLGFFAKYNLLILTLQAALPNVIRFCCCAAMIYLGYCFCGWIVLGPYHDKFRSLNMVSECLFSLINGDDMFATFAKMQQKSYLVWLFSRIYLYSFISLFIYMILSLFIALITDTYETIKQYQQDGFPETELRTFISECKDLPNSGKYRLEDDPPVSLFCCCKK
Procedure, shortened: (§1)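 Doxycycline-induced (0.5 ug/mL) HEK-293 Trex cells stably expressing surface-directed mutant channel were loaded with 1 micromolar Fluo4-AM, resuspended in Ringer's with 10 mM calcium and added to compound plates. Fluorescence (ex 480, em 540 nm) gave percent activity versus on-plate controls; EC50 by non-linear regression.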

TRPML2 = molecular target: T2, TRPML2 (Homo sapiens, UniProt Q8IZK6); test: Fluorescent TRPML2 assay (performed as for TRPML1, substituting the TRPML2 subtype)
T2 construct: expressed in transfected cells
T2 sequence (Q8IZK6 1-566): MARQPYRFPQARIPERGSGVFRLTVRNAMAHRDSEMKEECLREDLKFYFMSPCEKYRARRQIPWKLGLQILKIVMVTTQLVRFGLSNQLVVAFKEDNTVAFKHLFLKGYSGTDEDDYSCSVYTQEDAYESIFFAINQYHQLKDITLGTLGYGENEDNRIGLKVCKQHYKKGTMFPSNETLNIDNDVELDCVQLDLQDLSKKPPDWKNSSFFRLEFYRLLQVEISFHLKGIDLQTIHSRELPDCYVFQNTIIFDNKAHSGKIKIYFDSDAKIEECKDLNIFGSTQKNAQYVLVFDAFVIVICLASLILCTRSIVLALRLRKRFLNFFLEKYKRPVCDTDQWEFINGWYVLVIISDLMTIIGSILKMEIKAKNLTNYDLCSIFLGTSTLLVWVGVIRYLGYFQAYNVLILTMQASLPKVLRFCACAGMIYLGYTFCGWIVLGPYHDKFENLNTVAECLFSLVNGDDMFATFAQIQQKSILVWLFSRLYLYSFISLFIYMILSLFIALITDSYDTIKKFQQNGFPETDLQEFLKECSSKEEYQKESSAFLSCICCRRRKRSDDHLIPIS
Procedure, shortened: as §1

TRPML1, sequence (Q9GZU1 whole entry L15A/L16A/L577A/L578A, form open): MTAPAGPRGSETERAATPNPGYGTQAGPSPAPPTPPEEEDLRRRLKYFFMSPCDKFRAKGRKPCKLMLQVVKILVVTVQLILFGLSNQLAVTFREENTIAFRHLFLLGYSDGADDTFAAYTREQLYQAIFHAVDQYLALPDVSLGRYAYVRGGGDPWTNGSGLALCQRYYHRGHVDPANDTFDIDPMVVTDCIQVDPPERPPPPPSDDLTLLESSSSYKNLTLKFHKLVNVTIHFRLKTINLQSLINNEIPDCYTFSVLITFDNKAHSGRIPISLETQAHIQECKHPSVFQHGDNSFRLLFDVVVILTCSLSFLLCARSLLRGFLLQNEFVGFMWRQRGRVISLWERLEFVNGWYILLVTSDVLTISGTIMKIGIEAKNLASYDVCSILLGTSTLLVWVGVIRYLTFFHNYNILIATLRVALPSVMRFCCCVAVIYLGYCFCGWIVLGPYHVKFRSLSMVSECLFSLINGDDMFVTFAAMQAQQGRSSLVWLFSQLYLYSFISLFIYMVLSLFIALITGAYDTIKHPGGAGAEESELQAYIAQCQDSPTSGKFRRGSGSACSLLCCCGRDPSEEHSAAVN

C[C@H]1CN(C(=O)OC(C)(C)C)CCN1c1ncnc2c1c(C1CC1)cn2-c1cccc(C#N)c1 [Compound 200, tert-butyl (S)-4-(7-(3-cyanophenyl)-5-cyclopropyl-7H-pyrrolo[2,3-d]pyrimidin-4-yl)-3-methylpiperazine-1-carboxylate]
EC50 (TRPML1; fluorescent calcium assay): < 100 nM
EC50 (TRPML3; fluorescent calcium assay): < 100 nM
EC50 (TRPML2; fluorescent calcium assay): 100 to 500 nM

C[C@H]1CN(C(=O)OC(C)(C)C)CCN1c1ncnc2c1c(-c1ccncc1)cn2-c1cc(C#N)ccn1 [Compound 354, tert-butyl (S)-4-(7-(4-cyanopyridin-2-yl)-5-(pyridin-4-yl)-7H-pyrrolo[2,3-d]pyrimidin-4-yl)-3-methylpiperazine-1-carboxylate]
EC50 (TRPML1; fluorescent calcium assay): < 100 nM
EC50 (TRPML3; fluorescent calcium assay): < 100 nM
EC50 (TRPML2; fluorescent calcium assay): < 100 nM

[2H]C([2H])([2H])C(OC(=O)N1C[C@@H](C)N(c2ncnc3c2c(C(F)(F)F)cn3-c2cc(C#N)ccn2)C[C@H]1C)(C([2H])([2H])[2H])C([2H])([2H])[2H] [Compound 602, 2-(methyl-d3)propan-2-yl-1,1,1,3,3,3-d6 (2R,5R)-4-(7-(4-cyanopyridin-2-yl)-5-(trifluoromethyl)-7H-pyrrolo[2,3-d]pyrimidin-4-yl)-2,5-dimethylpiperazine-1-carboxylate]
EC50 (TRPML1): < 100 nM
EC50 (TRPML3): 100 to 500 nM
EC50 (TRPML2): 500 to 2000 nM

C[C@@H]1CN(c2ncnc3c2c(-c2ccccn2)cn3-c2cc(F)cc(Cl)c2)CCN1C(=O)OC(C)(C)C [Compound 221, tert-butyl (R)-4-(7-(3-chloro-5-fluorophenyl)-5-(pyridin-2-yl)-7H-pyrrolo[2,3-d]pyrimidin-4-yl)-2-methylpiperazine-1-carboxylate]
EC50 (TRPML1; fluorescent calcium assay): < 100 nM
EC50 (TRPML3; fluorescent calcium assay): < 100 nM
EC50 (TRPML2; fluorescent calcium assay): 100 to 500 nM

C[C@@H]1CN(c2ncnc3c2c(C(F)F)cn3-c2cc(C#N)ccn2)CCN1C(=O)OC(C)(C)C [Compound 511, tert-butyl (R)-4-(7-(4-cyanopyridin-2-yl)-5-(difluoromethyl)-7H-pyrrolo[2,3-d]pyrimidin-4-yl)-2-methylpiperazine-1-carboxylate]
EC50 (TRPML1): < 100 nM
EC50 (TRPML3): < 100 nM
EC50 (TRPML2): < 100 nM

C[C@@H]1CN(c2ncnc3c2c(C2CC2)cn3-c2cncc(C(F)(F)F)c2)[C@@H](C)CN1C(=O)OC(C)(C)C [Compound 167, tert-butyl (2R,5S)-4-(5-cyclopropyl-7-(5-(trifluoromethyl)pyridin-3-yl)-7H-pyrrolo[2,3-d]pyrimidin-4-yl)-2,5-dimethylpiperazine-1-carboxylate]
EC50 (TRPML1; fluorescent calcium assay): 100 to 500 nM
EC50 (TRPML3; fluorescent calcium assay): < 100 nM
EC50 (TRPML2; fluorescent calcium assay): 500 to 2000 nM

CCOC(=O)N1C[C@H](C)N(c2ncnc3c2c(-c2ccccc2F)cn3-c2cccnc2)C[C@H]1C [Compound 143, ethyl (2R,5S)-4-(5-(2-fluorophenyl)-7-(pyridin-3-yl)-7H-pyrrolo[2,3-d]pyrimidin-4-yl)-2,5-dimethylpiperazine-1-carboxylate]
EC50 (TRPML1; fluorescent calcium assay): 100 to 500 nM
EC50 (TRPML3; fluorescent calcium assay): 500 to 2000 nM
EC50 (TRPML2; fluorescent calcium assay): > 2000 nM

C[C@@H]1CN(C(=O)OC(C)(C)C)CCN1c1ncnc2c1c(C1CCOCC1)cn2-c1cccc(F)c1 [Compound 469, tert-butyl (R)-4-(7-(3-fluorophenyl)-5-(tetrahydro-2H-pyran-4-yl)-7H-pyrrolo[2,3-d]pyrimidin-4-yl)-3-methylpiperazine-1-carboxylate]
EC50 (TRPML1; fluorescent calcium assay): 100 to 500 nM
EC50 (TRPML3; fluorescent calcium assay): 100 to 500 nM
EC50 (TRPML2; fluorescent calcium assay): 500 to 2000 nM

COc1cc(-n2cc(C3CC3)c3c(N4CCN(C(=O)OC(C)(C)C)C[C@@H]4C)ncnc32)cc(F)c1F [Compound 301, tert-butyl (S)-4-(5-cyclopropyl-7-(3,4-difluoro-5-methoxyphenyl)-7H-pyrrolo[2,3-d]pyrimidin-4-yl)-3-methylpiperazine-1-carboxylate]
EC50 (TRPML1; fluorescent calcium assay): 100 to 500 nM
EC50 (TRPML3; fluorescent calcium assay): 100 to 500 nM
EC50 (TRPML2; fluorescent calcium assay): 500 to 2000 nM

C[C@H]1CN(C(=O)OC(C)(C)C)CCN1c1ncnc2c1c(N1CCCC1)cn2C1CCCC(F)(F)C1 (stereo partly drawn) [Compound 401, tert-butyl (3S)-4-(7-(3,3-difluorocyclohexyl)-5-(pyrrolidin-1-yl)-7H-pyrrolo[2,3-d]pyrimidin-4-yl)-3-methylpiperazine-1-carboxylate]
EC50 (TRPML1; fluorescent calcium assay): 100 to 500 nM
EC50 (TRPML3; fluorescent calcium assay): < 100 nM
EC50 (TRPML2; fluorescent calcium assay): > 2000 nM

C[C@@H]1CN(c2ncnc3c2c(-c2cccnc2)cn3-c2cncc(C(F)(F)F)c2)[C@@H](C)CN1C(=O)OC(C)(C)C [Compound 179, tert-butyl (2R,5S)-2,5-dimethyl-4-(5-(pyridin-3-yl)-7-(5-(trifluoromethyl)pyridin-3-yl)-7H-pyrrolo[2,3-d]pyrimidin-4-yl)piperazine-1-carboxylate]
EC50 (TRPML1; fluorescent calcium assay): 500 to 2000 nM
EC50 (TRPML3; fluorescent calcium assay): 100 to 500 nM
EC50 (TRPML2; fluorescent calcium assay): > 2000 nM

C[C@@H]1CN(c2nccc3c2c(N2CCC2)cn3-c2cccc(F)c2)[C@@H](C)CN1C(=O)OC(C)(C)C [Compound 638]
EC50 (TRPML1): < 100 nM
EC50 (TRPML3): < 100 nM
EC50 (TRPML2): 100 to 500 nM

[2H]C([2H])([2H])[C@@H]1CN(c2ncnc3c2c(-c2ccccc2F)cn3-c2cc(C#N)ccn2)[C@@H](C)CN1C(=O)OC(C)(C)C [Compound 712, tert-butyl (2R,5S)-4-(7-(4-cyanopyridin-2-yl)-5-(2-fluorophenyl)-7H-pyrrolo[2,3-d]pyrimidin-4-yl)-5-methyl-2-(methyl-d3)piperazine-1-carboxylate]
EC50 (TRPML1): < 100 nM
EC50 (TRPML3): < 100 nM
EC50 (TRPML2): < 100 nM

C[C@H]1CN(C(=O)OC(C)(C)C)CCN1c1ncnc2c1c(C1CC1)cn2-c1ncc(C#N)[nH]1 [Compound 440, tert-butyl (S)-4-(7-(5-cyano-1H-imidazol-2-yl)-5-cyclopropyl-7H-pyrrolo[2,3-d]pyrimidin-4-yl)-3-methylpiperazine-1-carboxylate]
EC50 (TRPML1; fluorescent calcium assay): > 2000 nM
EC50 (TRPML3; fluorescent calcium assay): 500 to 2000 nM
EC50 (TRPML2; fluorescent calcium assay): > 2000 nM

C[C@H]1CN(C(=O)OC(C)(C)C)CCN1c1ncnc2c1c(-c1ccccc1F)cn2-c1nccc(C#N)n1 [Compound 438, tert-butyl (S)-4-(7-(4-cyanopyrimidin-2-yl)-5-(2-fluorophenyl)-7H-pyrrolo[2,3-d]pyrimidin-4-yl)-3-methylpiperazine-1-carboxylate]
EC50 (TRPML1; fluorescent calcium assay): < 100 nM
EC50 (TRPML3; fluorescent calcium assay): < 100 nM
EC50 (TRPML2; fluorescent calcium assay): 500 to 2000 nM

C[C@@H]1CN(c2ncnc3c2c(C(F)(F)F)cn3C2CCCCC2)[C@@H](C)CN1C(=O)OC(C)(C)C [Compound 625, tert-butyl (2R,5S)-4-(7-cyclohexyl-5-(trifluoromethyl)-7H-pyrrolo[2,3-d]pyrimidin-4-yl)-2,5-dimethylpiperazine-1-carboxylate]
EC50 (TRPML1): 100 to 500 nM
EC50 (TRPML3): > 2000 nM
EC50 (TRPML2): > 2000 nM

CC(C)c1cn(-c2cc(F)ccn2)c2ncnc(N3C[C@@H](C)N(C(=O)OC(C)(C)C)C[C@@H]3C)c12 [Compound 698, tert-butyl (2R,5S)-4-(7-(4-fluoropyridin-2-yl)-5-isopropyl-7H-pyrrolo[2,3-d]pyrimidin-4-yl)-2,5-dimethylpiperazine-1-carboxylate]
EC50 (TRPML1): < 100 nM
EC50 (TRPML3): < 100 nM
EC50 (TRPML2): 100 to 500 nM

CC(C)(C)OC(=O)N1CCN(c2ncnc3c2c(C2CC2)cn3-c2cc(C#N)ccn2)[C@@H]2C[C@@H]21 (single isomer, unassigned) [Compound 408]
EC50 (TRPML1; fluorescent calcium assay): 100 to 500 nM
EC50 (TRPML3; fluorescent calcium assay): < 100 nM
EC50 (TRPML2; fluorescent calcium assay): 100 to 500 nM

C[C@@H]1CN(c2ncnc3c2c(C2CCC2)cn3-c2cccc(C(F)(F)F)c2)[C@@H](C)CN1C(=O)OC(C)(C)C [Compound 645, tert-butyl (2R,5S)-4-(5-cyclobutyl-7-(3-(trifluoromethyl)phenyl)-7H-pyrrolo[2,3-d]pyrimidin-4-yl)-2,5-dimethylpiperazine-1-carboxylate]
EC50 (TRPML1): 100 to 500 nM
EC50 (TRPML3): 100 to 500 nM
EC50 (TRPML2): 100 to 500 nM
